In patent EP2131831B1, “[…] ACIDS AND POLY-L-LYSINE FOR COMBATING […]-ORGANISMS” (priority 2007, dated 2008):

Key:
[1] = tested on: Escherichia coli ou Staphylococcus aureus; assay: Visual comparison of bactericidal activity, free fatty acids vs conjugates; type: cell-based; design: key to Activité bactéricide sur Escherichia coli ou Staphylococcus aureus de l'acide gras seul: 0: pas d'activité, culture négative; +: correspond à 10^3 colonies; ++: correspond à 10^4 colonies; +++: correspond à 10^6 colonies; ++++: correspond à 10^7 colonies; settings: visual scale; for Activité bactéricide sur Escherichia coli ou Staphylococcus aureus du conjugué: conjugate of the named fatty acid according to the invention; for Activité bactéricide sur Escherichia coli ou Staphylococcus aureus de l'acide gras seul: free, unbound fatty acid
Text: Les résultats sont évalués visuellement selon l'échelle suivante : • 0 pas d'activité, culture négative • + correspond à 10^3 colonies • ++ correspond à 10^4 colonies • +++ correspond à 10^6 colonies, et • ++++ correspond à 10^7 colonies.

[2] = tested on: souche multirésistante de staphylococcus epidermidis; settings: each component's concentration within the combined solution capryl-poly-L-Lysine-lauryl + pyruvate-poly-L-Lysine
Klebsiella oxytoca = settings: fatty acid on poly-L-Lysine 5×10^-3M, 50µl, 16 h at 37°
Text: (§1) Les différents essais ont été réalisés selon le mode opératoire décrit en suivant. Les effets anti-bactéricides et anti-fongiques des solutions testées ont été évalués sur des boîtes contenant des milieux de cultures appropriés à la croissance : • gélose chocolat haemophilus pour la culture de Neisseria, • gélose BCP pour les germes peu exigeants, • gélose Mueller Hinton 2 (MH2-F) pour la majorité des souches bactériennes sauf Neisseria et les streptocoques, • gélose columbia ANC (COL ANC-F) pour les streptocoques, • gélose Sabouraud gentamicine chloramphénicol (SAB GENTA CHL-F) pour les candidas albicans et les levures en général, et • milieu Leowenstein, Coletsos pour Mycobacterium tuberculosis.
(§2) Les boîtes sont recouvertes par 1ml de solution bactérienne ou mycosique à la concentration de 0,5 à 1 de Mac Farland (lecture au densitomètre) soit 1,5×10^8 bactéries/ml.
(§3) La boîte est ensuite séchée 15 minutes à 37°, et on applique 2 gouttes (50µl) de chaque solution à tester.
(§4) La boîte de culture est recouverte après 16 heures d'incubation à 37°.
(§5) Chaque plage de lyse due à l'activité anti-bactérienne ou anti-fongique des conjugués est mesurée. La lecture de l'effet bactéricide ou antifongique est mesurée en cm^2.

Streptocoque D = settings: fatty acid on poly-L-Lysine 5×10^-3M, 50µl, 16 h at 37°
Text: as §1, §2, §3, §4, §5

Proteus Mirabilis = settings: fatty acid on poly-L-Lysine 5×10^-3M, 50µl, 16 h at 37°
Text: as §1, §2, §3, §4, §5

Streptocoque B = settings: fatty acid on poly-L-Lysine 5×10^-3M, 50µl, 16 h at 37°
Text: as §1, §2, §3, §4, §5

Candida albicans = settings: fatty acid on poly-L-Lysine 5×10^-3M, 50µl, 16 h at 37°
Text: as §1, §2, §3, §4, §5

Morganella Morganii = settings: fatty acid on poly-L-Lysine 5×10^-3M, 50µl, 16 h at 37°
Text: as §1, §2, §3, §4, §5

Enterobacter Hafniae = settings: fatty acid on poly-L-Lysine 5×10^-3M, 50µl, 16 h at 37°
Text: as §1, §2, §3, §4, §5

Citrobacter koserii = settings: Citro bacter koserii; fatty acid on poly-L-Lysine 5×10^-3M; 50µl; 16 h at 37°
Escherichia coli = assay: Lysis zone on agar plate; type: cell-based; settings: fatty acid on poly-L-Lysine 5×10^-3M, 50µl, 16 h at 37°
Pseudomonas aeruginosa = assay: Lysis zone on agar plate; type: cell-based; settings: fatty acid on poly-L-Lysine 5×10^-3M, 50µl, 16 h at 37°
Nesseria = settings: fatty acid on poly-L-Lysine 5×10^-3M, 50µl, 16 h at 37°
Staphylococcus aureus = assay: Lysis zone on agar plate; type: cell-based; settings: fatty acid on poly-L-Lysine 5×10^-3M, 50µl, 16 h at 37°

How did the “Activité bactéricide sur Escherichia coli ou Staphylococcus aureus du conjugué” value [1] turn out when Acide Caprylique was run?
Its value is “+++ (correspond à 10^6 colonies)”.

What about the “Activité bactéricide sur Escherichia coli ou Staphylococcus aureus de l'acide gras seul” value [1] of the same compound?
Its value is “+++ (correspond à 10^6 colonies)”.

For “capryl-poly-L-Lysine-lauryl [capryl-poly-Lysine-lauryl]”, which concentration minimale inhibitrice [2] is on record?
The concentration minimale inhibitrice was < 1,25×10^5 M.

With `CCCCCCCCCC(=O)O` [Acide Caprique] as the compound, how does the “Activité bactéricide sur Escherichia coli ou Staphylococcus aureus du conjugué” value [1] read?
The value was “+++ (correspond à 10^6 colonies)”.

What about the “Activité bactéricide sur Escherichia coli ou Staphylococcus aureus de l'acide gras seul” value [1] of the same compound?
The value was “++++ (correspond à 10^7 colonies)”.

Which results are given for `CCCCCCCC/C=C\CCCCCCCC(=O)O` [Acide Oléique]?
Activité bactéricide sur Escherichia coli ou Staphylococcus aureus du conjugué [1]: + (correspond à 10^3 colonies); Activité bactéricide sur Escherichia coli ou Staphylococcus aureus de l'acide gras seul [1]: + (correspond à 10^3 colonies)

Which results are given for butyrate [C4 = butyrate]?
Activité bactéricide sur Escherichia coli ou Staphylococcus aureus du conjugué [1]: +++ (correspond à 10^6 colonies); Activité bactéricide sur Escherichia coli ou Staphylococcus aureus de l'acide gras seul [1]: 0

What does the source list for lactyl-Poly-L-Lysine?
plage de lyse (Klebsiella oxytoca): 0 cm^2; plage de lyse (Streptocoque D): 2,01 cm^2; plage de lyse (Proteus Mirabilis): 0 cm^2; plage de lyse (Streptocoque B): peu sensible; plage de lyse (Candida albicans): 1,05cm^2; plage de lyse (Morganella Morganii): 0 cm^2; plage de lyse (Enterobacter Hafniae): 1,44cm^2; plage de lyse (Citrobacter koserii): 1,13 cm^2; plage de lyse (Escherichia coli): 1,92 cm^2; plage de lyse (Pseudomonas aeruginosa): 2,34 cm^2; plage de lyse (Nesseria): 1,65cm^2; plage de lyse (Staphylococcus aureus): 1,82 cm^2; plage de lyse (Alcalescens Diaspar): 1,53cm^2

Which results are given for `CC(=O)O` [C2 = acetate]?
Activité bactéricide sur Escherichia coli ou Staphylococcus aureus du conjugué [1]: +++ (correspond à 10^6 colonies); Activité bactéricide sur Escherichia coli ou Staphylococcus aureus de l'acide gras seul [1]: 0

“propionyl-poly-L-Lysine [Propionylpoy-L-lysine]” was tested. Which plage de lyse (Klebsiella oxytoca) did it give?
The plage de lyse was 0 cm^2.

And the plage de lyse (Streptocoque D)?
The plage de lyse was 0 cm^2.

What about the plage de lyse (Proteus Mirabilis) of the same compound?
The plage de lyse was 0 cm^2.

And the plage de lyse (Streptocoque B)?
Its plage de lyse is 0 cm^2.

And the plage de lyse (Candida albicans)?
Its plage de lyse is 2,13cm^2.

And the plage de lyse (Morganella Morganii)?
Its plage de lyse is 0 cm^2.

What about the plage de lyse (Enterobacter Hafniae) of the same compound?
Its plage de lyse is 1,12 cm^2.

And the plage de lyse (Citrobacter koserii)?
The plage de lyse was 0 cm^2.

And the plage de lyse (Pseudomonas aeruginosa)?
Its plage de lyse is 0 cm^2.

And the plage de lyse (Nesseria)?
The plage de lyse was 1,13 cm^2.

What about the plage de lyse (Staphylococcus aureus) of the same compound?
Its plage de lyse is 2,3 cm^2.

What about the plage de lyse (Alcalescens Diaspar) of the same compound?
Its plage de lyse is 1,13cm^2 inhibition partielle.

`CCCCCC(=O)O` [Acide Caproïque] was tested. Which “Activité bactéricide sur Escherichia coli ou Staphylococcus aureus du conjugué” value [1] did it give?
The value was “+++ (correspond à 10^6 colonies)”.

What about the “Activité bactéricide sur Escherichia coli ou Staphylococcus aureus de l'acide gras seul” value [1] of the same compound?
The value was “++ (correspond à 10^4 colonies)”.

Acide Palmitoléique was tested. Which “Activité bactéricide sur Escherichia coli ou Staphylococcus aureus du conjugué” value [1] did it give?
The value was “+++ (correspond à 10^6 colonies)”.

And the “Activité bactéricide sur Escherichia coli ou Staphylococcus aureus de l'acide gras seul” value [1]?
The value was “++ (correspond à 10^4 colonies)”.

For Farnesyl-cystéine, which “Activité bactéricide sur Escherichia coli ou Staphylococcus aureus du conjugué” value [1] is on record?
The value was “++ (correspond à 10^4 colonies)”.

And the “Activité bactéricide sur Escherichia coli ou Staphylococcus aureus de l'acide gras seul” value [1]?
The value was 0.

For “acétyl-poly-L-Lysine [Acétyl- poly-L-Lysine]”, which plage de lyse (Klebsiella oxytoca) is on record?
Its plage de lyse is 3,14 cm^2.

What about the plage de lyse (Streptocoque D) of the same compound?
Its plage de lyse is 4,15cm^2.

What about the plage de lyse (Proteus Mirabilis) of the same compound?
Its plage de lyse is 0 cm^2.

What about the plage de lyse (Streptocoque B) of the same compound?
Its plage de lyse is 3,14 cm^2 colonies.

And the plage de lyse (Candida albicans)?
The plage de lyse was 1,97cm^2.

What about the plage de lyse (Morganella Morganii) of the same compound?
The plage de lyse was 0 cm^2.

And the plage de lyse (Enterobacter Hafniae)?
The plage de lyse was 2,71 cm^2.

And the plage de lyse (Citrobacter koserii)?
Its plage de lyse is 1,77 cm^z cm^2.

What about the plage de lyse (Escherichia coli) of the same compound?
Its plage de lyse is 0 cm^2.

And the plage de lyse (Nesseria)?
The plage de lyse was 2,27cm^2.

And the plage de lyse (Staphylococcus aureus)?
The plage de lyse was 1,68 cm^2.

What about the plage de lyse (Alcalescens Diaspar) of the same compound?
The plage de lyse was 1,4cm^2.

How did the plage de lyse (Klebsiella oxytoca) turn out when pyruvyl-poly-L-Lysine was run?
Its plage de lyse is 1,33 cm^2.

And the plage de lyse (Streptocoque D)?
The plage de lyse was 2,27 cm^2.

What about the plage de lyse (Proteus Mirabilis) of the same compound?
The plage de lyse was 0 cm^2.

And the plage de lyse (Streptocoque B)?
The plage de lyse was 1,77cm^2 qqls colonies.

And the plage de lyse (Candida albicans)?
The plage de lyse was 2,46 cm^2.

What about the plage de lyse (Morganella Morganii) of the same compound?
The plage de lyse was 0 cm^2.

What about the plage de lyse (Enterobacter Hafniae) of the same compound?
The plage de lyse was 2,27 cm^2.

What about the plage de lyse (Citrobacter koserii) of the same compound?
Its plage de lyse is 1,54 cm^2.

And the plage de lyse (Escherichia coli)?
Its plage de lyse is 2,09 cm^2.

What about the plage de lyse (Pseudomonas aeruginosa) of the same compound?
Its plage de lyse is 1,32 cm^2.

What about the concentration minimale inhibitrice [2] of the same compound?
Its concentration minimale inhibitrice is < 1,25×10^4 M.

What about the plage de lyse (Nesseria) of the same compound?
Its plage de lyse is 2,01cm^2.

What about the plage de lyse (Staphylococcus aureus) of the same compound?
The plage de lyse was 2,13 cm^2.

And the plage de lyse (Alcalescens Diaspar)?
The plage de lyse was 1,53cm^2.

Which “Activité bactéricide sur Escherichia coli ou Staphylococcus aureus du conjugué” value [1] does the source give for `CCCCCCCCCCCCCC(=O)O` [Acide Myristique] here?
The value was “+ (correspond à 10^3 colonies)”.

What about the “Activité bactéricide sur Escherichia coli ou Staphylococcus aureus de l'acide gras seul” value [1] of the same compound?
Its value is “+ (correspond à 10^3 colonies)”.

What does the source list for `CCCCCCCCCCCCCCCC(=O)O` [Acide Palmitique]?
Activité bactéricide sur Escherichia coli ou Staphylococcus aureus du conjugué [1]: + (correspond à 10^3 colonies); Activité bactéricide sur Escherichia coli ou Staphylococcus aureus de l'acide gras seul [1]: 0

For propionate [C3 = propionate], which “Activité bactéricide sur Escherichia coli ou Staphylococcus aureus du conjugué” value [1] is on record?
The value was “+++ (correspond à 10^6 colonies)”.

What about the “Activité bactéricide sur Escherichia coli ou Staphylococcus aureus de l'acide gras seul” value [1] of the same compound?
Its value is 0.

For “butyryl-poly-L-Lysine [Butyryl- poly-L-Lysine]”, which plage de lyse (Klebsiella oxytoca) is on record?
The plage de lyse was 0 cm^2.

And the plage de lyse (Streptocoque D)?
The plage de lyse was 0 cm^2.

What about the plage de lyse (Proteus Mirabilis) of the same compound?
The plage de lyse was 0 cm^2.

What about the plage de lyse (Streptocoque B) of the same compound?
Its plage de lyse is 1,33 cm^2 qqls colonies.

And the plage de lyse (Candida albicans)?
Its plage de lyse is 2,3 cm^2.

And the plage de lyse (Morganella Morganii)?
The plage de lyse was 0 cm^2.

And the plage de lyse (Enterobacter Hafniae)?
Its plage de lyse is 2,03 cm^2.

What about the plage de lyse (Citrobacter koserii) of the same compound?
The plage de lyse was 1,77 cm^2.

What about the plage de lyse (Escherichia coli) of the same compound?
The plage de lyse was 2,65 cm^2.

What about the plage de lyse (Nesseria) of the same compound?
The plage de lyse was 0,78 cm^2.

And the plage de lyse (Staphylococcus aureus)?
Its plage de lyse is 1,82 cm^2.

And the plage de lyse (Alcalescens Diaspar)?
The plage de lyse was 0,85 cm^2.

What does the source list for `CCCCC(=O)O` [C5 = acide valérique, acide valérique]?
Activité bactéricide sur Escherichia coli ou Staphylococcus aureus du conjugué [1]: +++ (correspond à 10^6 colonies); Activité bactéricide sur Escherichia coli ou Staphylococcus aureus de l'acide gras seul [1]: 0

For `CCCCCCCCCCCC(=O)O` [Acide Laurique], which “Activité bactéricide sur Escherichia coli ou Staphylococcus aureus du conjugué” value [1] is on record?
Its value is “++ (correspond à 10^4 colonies)”.

What about the “Activité bactéricide sur Escherichia coli ou Staphylococcus aureus de l'acide gras seul” value [1] of the same compound?
Its value is “++++ (correspond à 10^7 colonies)”.
